Laboratory results as given in patent publication US20220213047A1, “CARBONIC ANHYDRASE INHIBITORS FOR TREATMENT OF NEISSERIA GONORRHOEAE INFECTION” (Purdue Research Foundation, priority 2021, published 2022).
≈ marks a conversion by molar mass, not a printed value.

Assays:
N. gonorrhoeae [1] = test: MIC against N. gonorrhoeae clinical isolates, normal and CO2 conditions; type: cell-based; details: Neisseria gonorrhoeae
Experimental: (§1) These tests were performed in normal culture conditions with standard CO2 levels and in CO2 (5% in incubator) conditions.

ATCC strain 700825 = test: MICs against ATCC strain 700825; type: cell-based, N. gonorrhoeae; details: Neisseria gonorrhoeae
Experimental: as §1

N. gonorrhoeae [2] = test: Multi-step resistance selection; type: cell-based; details: after 9 passages
Source text: Frequency of mutation—multi-step mutation—We investigated N. gonorrhoeae's ability to develop resistance to CAIs using the multi-step resistance selection experiment^58.
N. gonorrhoeae cultures that grew at the highest concentrations of the compound are used as an inoculum for the subsequent culture.

[3] = N. gonorrhoeae 178, Non CO2 environment
[4] = N. gonorrhoeae 178, normal growth environment (with CO2)
[5] = N. gonorrhoeae 181, Non CO2 environment
[6] = N. gonorrhoeae 181, normal growth environment (with CO2)
[7] = N. gonorrhoeae 194, Non CO2 environment
[8] = N. gonorrhoeae 194, normal growth environment (with CO2)

MIC (ATCC strain 700825; ATCC700825, In CO2) [mg/L] | MIC (ATCC strain 700825; ATCC700825, In air) [mg/L] | SMILES | MIC (N. gonorrhoeae [1]; [3]) [mg/L] | MIC (N. gonorrhoeae [1]; [4]) [mg/L] | MIC (N. gonorrhoeae [1]; [5]) [mg/L] | MIC (N. gonorrhoeae [1]; [6]) [mg/L] | MIC (N. gonorrhoeae [1]; [7]) [mg/L] | MIC (N. gonorrhoeae [1]; [8]) [mg/L] | increase in MIC (N. gonorrhoeae [2]) [fold]
– | – | NS(=O)(=O)c1nnc(NC(=O)c2cccc(C(F)(F)F)c2)s1 [CAI 0038] | 1 (≈ 2.84 µM) | > 64 | 4 (≈ 11.4 µM) | 64 (≈ 182 µM) | 2 (≈ 5.68 µM) | > 64 | –
– | – | NS(=O)(=O)c1nnc(NC(=O)CCC2CCCC2)s1 [CAI 0015] | 2 (≈ 6.57 µM) | 16 (≈ 52.6 µM) | 1 (≈ 3.29 µM) | > 64 | 4 (≈ 13.1 µM) | 64 (≈ 210 µM) | –
– | – | CC(C)(C)C(=O)Nc1nnc(S(N)(=O)=O)s1 [CAI 0010] | 32 (≈ 121 µM) | 32 (≈ 121 µM) | 32 (≈ 121 µM) | > 64 | 32 (≈ 121 µM) | 64 (≈ 242 µM) | –
– | – | CC(C)=CC(=O)Nc1nnc(S(N)(=O)=O)s1 [CAI 0016] | 16 (≈ 61 µM) | 64 (≈ 244 µM) | 16 (≈ 61 µM) | 32 (≈ 122 µM) | 32 (≈ 122 µM) | 64 (≈ 244 µM) | –
– | – | CCCCCCC(=O)Nc1nnc(S(N)(=O)=O)s1 [CAI 0027] | 2 (≈ 6.84 µM) | 32 (≈ 109 µM) | 2 (≈ 6.84 µM) | 64 (≈ 219 µM) | 1 (≈ 3.42 µM) | 64 (≈ 219 µM) | –
– | – | Nc1nnc(S(N)(=O)=O)s1 [CAI 0034] | 1 (≈ 5.55 µM) | > 64 | 4 (≈ 22.2 µM) | > 64 | 2 (≈ 11.1 µM) | > 64 | –
– | – | NS(=O)(=O)c1nnc(NC(=O)C2CCCCC2)s1 [CAI 0022] | 4 (≈ 13.8 µM) | 32 (≈ 110 µM) | 2 (≈ 6.89 µM) | 64 (≈ 220 µM) | 4 (≈ 13.8 µM) | > 64 | –
4 (≈ 12.8 µM) | 0.5 (≈ 1.6 µM) | NS(=O)(=O)c1nnc(NC(=O)CCc2ccccc2)s1 [CAI 0041] | – | – | – | – | – | – | –
– | – | CCN[C@H]1C[C@H](C)S(=O)(=O)c2sc(S(N)(=O)=O)cc21 [Dorzolamide] | 32 (≈ 98.6 µM) | > 64 | > 64 | > 64 | > 64 | > 64 | –
– | – | O=C(O)c1cn(C2CC2)c2cc(N3CCNCC3)c(F)cc2c1=O [Ciprofloxacin] | – | – | – | – | – | – | 300
– | – | NS(=O)(=O)c1nnc(NC(=O)c2ccccc2)s1 [CAI 0012] | 2 (≈ 7.03 µM) | 16 (≈ 56.3 µM) | 4 (≈ 14.1 µM) | > 64 | 2 (≈ 7.03 µM) | 64 (≈ 225 µM) | –
– | – | NS(=O)(=O)c1nnc(NC(=O)C2CCC2)s1 [CAI 0018] | 16 (≈ 61 µM) | 64 (≈ 244 µM) | 16 (≈ 61 µM) | > 64 | 8 (≈ 30.5 µM) | 32 (≈ 122 µM) | –
– | – | NS(=O)(=O)c1nnc(NC(=O)CN2CCCC2)s1 [CAI 0037] | > 64 | > 64 | > 64 | > 64 | > 64 | > 64 | –
– | – | CC(C)CC(=O)Nc1nnc(S(N)(=O)=O)s1 [CAI 0026] | 8 (≈ 30.3 µM) | 32 (≈ 121 µM) | 8 (≈ 30.3 µM) | > 64 | 4 (≈ 15.1 µM) | > 64 | –
– | – | NS(=O)(=O)c1nnc(NC(=O)CN2CCCCC2)s1 [CAI 0035] | 64 (≈ 210 µM) | > 64 | > 64 | > 64 | 64 (≈ 210 µM) | > 64 | –
– | – | NS(=O)(=O)c1nnc(NC(=O)C2CCCC2)s1 [CAI 0023] | 8 (≈ 28.9 µM) | 32 (≈ 116 µM) | 8 (≈ 28.9 µM) | 64 (≈ 232 µM) | 8 (≈ 28.9 µM) | 64 (≈ 232 µM) | –
